Assays:
Assay type in all cases: cell-based
[1] = tested on: S. aureus ATCC ® 29213 ™; test: MIC, broth microdilution, S. aureus; settings: ≥85% inhibition of OD
Source text: (§1) Our skin microbiome houses billions of microbes, many of which are commensal and beneficial, however in some instances can trigger harmful skin inflammation. The potential for compounds to promote a healthy skin microbiome by targeting the “bad” bugs and not harming the “good” bugs is an emerging field of study in dermatology. The purpose of this study was to evaluate the antibacterial activity of the Chia seed extract composition of Example 14 compared to control Doxycycline applied in vitro to planktonic bacteria categorized as “good” (M. luteus ATCC® 4698™, S. hominis ATCC® 27847™, S. warneri ATCC® 27836™, S. epidermidis ATCC® 12228™, S. capitis ATCC®27841™, S. simulans ATCC® 27850™) and another six which are categorized as “bad” (S. aureus ATCC™ 29213™, S. aureus MRSA ATCC® 33592™, S. pyogenes ATTC® 19615™, C. acnes ATCC™ 6919™, C. xerosis ATCC® 373™, C. granulosum ATCC® 25564™).
(§2) Test agents and control were stored at recommended storage temperature until use. Minimum Inhibitory Concentrations (MIC) were determined in vitro using the broth microdilution method. […] Antimicrobial activity was defined as the lowest concentration of each test material that inhibited ≥85% of the optical density (OD) measured in broth media. […]

[2] = tested on: S. aureus MRSA ATCC ® 33591 ™; test: MIC, broth microdilution, S. aureus MRSA; settings: ≥85% inhibition of OD
[3] = tested on: S. pyogenes ATCC ® 19615 ™; test: MIC, broth microdilution, S. pyogenes; settings: ≥85% inhibition of OD
Source text: as §1, §2

[4] = tested on: C. acnes ATCC ® 6919 ™; test: MIC, broth microdilution, C. acnes; settings: ≥85% inhibition of OD
Source text: as §1, §2

[5] = tested on: C. xerosis ATCC ® 373 ™; test: MIC, broth microdilution, C. xerosis; settings: ≥85% inhibition of OD
Source text: as §1, §2

[6] = tested on: C. granulosum ATCC ® 25564 ™; test: MIC, broth microdilution, C. granulosum; settings: ≥85% inhibition of OD
Source text: as §1, §2

[7] = tested on: M. luteus ATCC ® 4698 ™; test: MIC, broth microdilution, M. luteus; settings: ≥85% inhibition of OD
Source text: as §1, §2

[8] = tested on: S. hominis ATCC ® 27847 ™; test: MIC, broth microdilution, S. hominis; settings: ≥85% inhibition of OD
Source text: as §1, §2

[9] = tested on: S. warneri ATCC ® 27836 ™; test: MIC, broth microdilution, S. warneri; settings: ≥85% inhibition of OD
Source text: as §1, §2

[10] = tested on: S. epidermidis ATCC ® 12228 ™; test: MIC, broth microdilution, S. epidermidis; settings: ≥85% inhibition of OD
Source text: as §1, §2

[11] = tested on: S. capitis ATCC ® 27841 ™; test: MIC, broth microdilution, S. capitis; settings: ≥85% inhibition of OD
Source text: as §1, §2

[12] = tested on: S. simulans ATCC ® 27850 ™; test: MIC, broth microdilution, S. simulans; settings: ≥85% inhibition of OD
Source text: as §1, §2

[13] = tested on: “bad” strains; test: MIC, broth microdilution, summary over “bad” strains; settings: range over the six “bad” strains
Source text: as §1, §2

[14] = tested on: “good” skin bacteria strains; test: MIC, broth microdilution, summary over “good” strains; settings: range over the six “good” strains
Source text: as §1, §2

Doxycycline hyclate
MIC [1]: (0.00002) % w/v
MIC ([1]; mean ± StDev of 3 experiments): 0.20 ± 0.00 µg/mL
MIC [2]: (0.0020) % w/v
MIC ([2]; mean ± StDev of 3 experiments): 20.83 ± 7.22 µg/mL
MIC [3]: (0.00001) % w/v
MIC ([3]; mean ± StDev of 3 experiments): 0.11 ± 0.07 µg/mL
MIC [4]: (0.00003) % w/v
MIC ([4]; mean ± StDev of 3 experiments): 0.26 ± 0.11 µg/mL
MIC [5]: (0.00003) % w/v
MIC ([5]; mean ± StDev of 3 experiments): 0.33 ± 0.11 µg/mL
MIC [6]: (0.00001) % w/v
MIC ([6]; mean ± StDev of 3 experiments): 0.13 ± 0.06 µg/mL
MIC [7]: (0.00001) % w/v
MIC ([7]; mean ± StDev of 3 experiments): 0.10 ± 0.00 µg/mL
MIC [8]: (0.0010) % w/v
MIC ([8]; mean ± StDev of 3 experiments): 10.42 ± 3.61 µg/mL
MIC [9]: (0.00003) % w/v
MIC ([9]; mean ± StDev of 3 experiments): 0.31 ± 0.41 µg/mL
MIC [10]: (0.00013) % w/v
MIC ([10]; mean ± StDev of 3 experiments): 1.30 ± 0.45 µg/mL
MIC [11]: (0.00007) % w/v
MIC ([11]; mean ± StDev of 3 experiments): 0.65 ± 0.23 µg/mL
MIC [12]: (0.00013) % w/v
MIC ([12]; mean ± StDev of 3 experiments): 1.04 ± 0.45 µg/mL
MIC for “bad” strains [13]: 0.1 to 20.8 µg/mL
MIC for “good” strains [14]: 0.1 to 10.4 µg/mL

Source: patent US12599642B2, “Compositions derived from Salvia hispanica seeds” (Signum Biosciences, priority 2020, dated 2026)
